Measured values as given in patent publication US20250345318A1, “COMPOUND AND USE THEREOF IN PREVENTING OR TREATING RADIATION DAMAGE” (SIMCERE PHARMACEUTICAL CO., LTD., priority 2022, published 2025).

How the values were obtained:
[1] = Pharmacokinetics of R-JAC4 and S-JAC4 in mice (Example 17); type: in vivo; settings: for F / clearance (CL) / AUC(0-t) / Cmax / Tmax / half-life / C0 / Vd: female BALB/c mice; for F: intragastric 10 mg/kg vs intravenous 3 mg/kg; for clearance (CL) / AUC(0-t) / Cmax / Tmax / half-life / C0 / Vd: mean, n = 3; for AUC(0-t) / Cmax / Tmax / half-life / C0 / Vd: mouse, plasma; for Vd: read-out: Vss
C57/BL6 mice = assay: R-JAC4 in radiation enteritis mouse model: plasma FD4, small intestine length (Example 18); type: in vivo; settings: R-JAC4 10 mg/kg and 3 mg/kg intragastric, ABI 12 Gy
Procedure: The formulation of the vehicle for R-JAC4 was polyethylene glycol:ethanol:physiological saline=40:7.5:52.5, v/v/v. The vehicle group and the treatment groups were given the vehicle or treatment at the same volume by the same route.
The vehicle was administered to the vehicle control group intragastrically, and R-JAC4 10 mg/kg and R-JAC4 3 mg/kg interventions were given to the R-JAC4 treatment groups intragastrically. The treatment started 7 days before the X-ray radiation and was administrated once daily until the day before the end of study, for a total of […].
X-ray radiation: The mice were anesthetized intraperitoneally and exposed to ABI using an X-ray irradiator (12 Gy, 1.25 Gy/min). The irradiated region was a 3 cm region above the iliac joint below the chest, so as to induce gastrointestinal radiation syndrome.
Permeability detection in the small intestine: On day 4 post-radiation, FITC-dextran 4 kDa, abbreviated as FD4, was given to the mice intragastrically at a dose of 0.6 mg/g body weight. Peripheral blood was collected in an anticoagulation tube after 4 h, and the plasma was collected by centrifugation. The samples were added to a 96-well plate at 100 μL, and the fluorescence intensity was measured (excitation wavelength: 485 nm, emission wavelength: 535 nm). The FD4 concentrations of the samples were calculated by regression according to a standard curve. […]

JWA^IEC WT mice = assay: R-JAC4 in radiation enteritis model, JWA^IEC WT mice (Example 19); type: in vivo; settings: R-JAC4 10 mg/kg
Procedure: (§1) Intestinal epithelial cell JWA-knockout mice (JWA^IEC KO) and their wild type littermates (JWA^IEC WT) were subjected to radiation enteritis modeling in the same manner as in Example 17 and were given R-JAC4 10 mg/kg treatment. In addition to the detection of FD4 concentration, the plasma was collected from the mice at the end of study to detect the plasma proinflammatory cytokine level by ELISA and the activity of antioxidant-related enzymes by biochemical tests.

JWA^IEC KO mice = assay: R-JAC4 in radiation enteritis model, JWA^IEC KO mice (Example 19); type: in vivo
Procedure: as §1

Caco-2 cells = assay: Integrity of irradiated single Caco-2 cell layer: electric resistance, FD4 permeability (Example 23); type: cell-based; settings: 20 Gy, 24 h later
Procedure: Caco-2 cells were cultured in a mixture of 78% MEM+20% FBS+1% P/S+1% NEAA and seeded in a 24-well chamber at a density of 10,000 cells/well, with the culture medium refreshed once every 2 days until day 11. The cells were then pretreated with DMSO or 1, 3, or 10 μM R-JAC4 for 3 days. The single cell layer model was constructed during the 14 days. The model was then irradiated at a dose of 0 Gy or 20 Gy at a dose rate of 2.5 Gy/min, and the electric resistance of the single cell layer and the permeability of FD4 were measured 24 h later.

[2] = single intravenous dose 3 mg/kg
[3] = po, single intragastric dose 10 mg/kg
[4] = R-JAC4, JWA^IEC KO mice vs vehicle control
[5] = 1 μM R-JAC4 3 days pretreatment
[6] = 3 μM R-JAC4 3 days pretreatment

F [1] [%] | clearance (CL) [1, 2] [mL/min/kg] | AUC(0-t) [1, 3] [ng·h/mL] | Cmax [1, 3] [ng/mL] | Tmax [1, 3] [min] | half-life [1, 3] [min] | AUC(0-t) [1, 2] [ng·h/mL] | C0 [1, 2] [ng/mL] | half-life [1, 2] [min] | Vd [1, 2] [L/kg] | Compound | further results
3.94 | 140 | 49.5 | 176 | 4.98 | 22.7 | 374 | 1680 | 36 | 3.64 | c1ccc(CSc2nnc([C@H]3COc4ccccc4O3)o2)nc1 [R-JAC4] | oral bioavailability, comparison of isomers ([1]; BALB/c mice, calculated by F=(AUC-po/Dose-po)/(AUC-iv/Dose-iv)): higher than that of S-JAC4; shortening extent of the small intestine (C57/BL6 mice): effective in reducing the shortening extent of the small intestine in a dose-dependent manner; concentration of fluorescein FD4 in the plasma (C57/BL6 mice; day 4 post-radiation): dose-dependent down-regulation effect; activity of plasma glutathione peroxidase and catalase (JWA^IEC WT mice): significantly increased; plasma FD4 level (JWA^IEC WT mice): significantly downregulated; plasma levels of proinflammatory cytokines TNF-α and IL-1β (JWA^IEC WT mice): significantly reduced; plasma FD4 level (JWA^IEC KO mice; R-JAC4 10 mg/kg, JWA^IEC KO mice vs vehicle control): no significant change; activity of plasma glutathione peroxidase and catalase (JWA^IEC KO mice; [4]): no significant changes; plasma levels of proinflammatory cytokines TNF-α and IL-1β (JWA^IEC KO mice; [4]): no significant changes; electric resistance of the single Caco-2 cell layer (Caco-2 cells; [5]): 1016±64.65 Ω·cm^2; permeability of FD4 through the single cell layer (Caco-2 cells; [5]): 410.60 ± 50.99 ng/mL; electric resistance of the single Caco-2 cell layer (Caco-2 cells; [6]): 1138±25.97 Ω·cm^2; permeability of FD4 through the single cell layer (Caco-2 cells; [6]): 345.40 ± 29.85 ng/mL; electric resistance of the single Caco-2 cell layer (Caco-2 cells; 10 μM R-JAC4 3 days pretreatment): 1109±101.20 Ω·cm^2
1.32 | 121 | 17.2 | 48.7 | 4.98 | 27.1 | 410 | 1650 | 116 | 7.72 | c1ccc(CSc2nnc([C@@H]3COc4ccccc4O3)o2)nc1 [S-JAC4] | –
